According to PMC9715518, “Human and rat microsomal metabolites of N-tert-butoxycarbonylmethamphetamine and its urinary metabolites in rat” (Forensic Toxicology, 2021):
Values joined by “and” are separate entries in the source; they are usually repeats but may differ in a detail not shown here. Equal values may be shown once.

What was measured:
[1] = Microsomal metabolism test, human liver microsomes
[2] = pH 1.5, 37 °C; cited from earlier work
[3] = Rat administration test, urinary excretion
[4] = Microsomal metabolism test, rat liver microsomes
[5] = rat no. 1, urine 0–4 h, BocMA 20 mg/kg i.p.
[6] = rat no. 1, urine 4–8 h, BocMA 20 mg/kg i.p.
[7] = rat no. 1, urine 8–24 h, BocMA 20 mg/kg i.p.
[8] = rat no. 1, urine 24–48 h, BocMA 20 mg/kg i.p.
[9] = rat no. 2, urine 0–4 h, BocMA 20 mg/kg i.p.
[10] = rat no. 2, urine 4–8 h, BocMA 20 mg/kg i.p.
[11] = rat no. 2, urine 8–24 h, BocMA 20 mg/kg i.p.
[12] = rat no. 3, urine 0–4 h, BocMA 20 mg/kg i.p.
[13] = rat no. 3, urine 4–8 h, BocMA 20 mg/kg i.p.
[14] = rat no. 3, urine 8–24 h, BocMA 20 mg/kg i.p.
[15] = rat no. 3, urine 24–48 h, BocMA 20 mg/kg i.p.
[16] = rat no. 3, urine 48–72 h, BocMA 20 mg/kg i.p.

CC(Cc1ccccc1)N(C)C(=O)OC(C)(C)C (centres unmarked) [BocMA, N-tert-butoxycarbonylmethamphetamine]
BocMA degraded ([1]; HLM, first 8 min): 80% | ER (extraction ratio) ([1]; HLM, mean ± SD, n = 3): 0.90 and 0.90 ± 0.01 | CLint (estimated intrinsic clearance) ([1]; HLM, scaled to whole liver, mean ± SD, n = 3): 200 mL/min/kg body wt. and 200 ± 20 mL/min/kg body wt. | CLH (estimated hepatic clearance) ([1]; HLM, well-stirred model without protein binding, mean ± SD, n = 3): 19 ± 1 mL/min/kg body wt. | half-life at 1 μg/mL ([1]; human, microsomes, pH 7.4): 3.2 ± 0.3 min | microsomal CLint at 1 μg/mL ([1]; human, microsomes, pH 7.4): 220 ± 20 µL/min/mg | Half-life in model gastric juice solution [2]: 50 min | BocMA absolute amount in urine ([3]; average of 3 rats, urine 0–72 h total, BocMA 20 mg/kg i.p.): 16000 ng | BocMA absolute amount in urine [3, 5]: 87 ng | BocMA concentration in urine [3, 5]: 58 ng/mL | BocMA absolute amount in urine ([3]; rat no. 1, urine 0–72 h total, BocMA 20 mg/kg i.p.): 240 ng | BocMA absolute amount in urine [3, 6]: 8.9 ng | BocMA concentration in urine [3, 6]: 8.9 ng/mL | BocMA absolute amount in urine [3, 7]: 59 ng | BocMA concentration in urine [3, 7]: 7.4 ng/mL | BocMA absolute amount in urine [3, 8]: 84 ng | BocMA concentration in urine [3, 8]: 12 ng/mL | BocMA absolute amount in urine [3, 9]: 190 ng | BocMA concentration in urine [3, 9]: 95 ng/mL | BocMA absolute amount in urine ([3]; rat no. 2, urine 0–72 h total, BocMA 20 mg/kg i.p.): 310 ng | BocMA absolute amount in urine [3, 10]: 78 ng | BocMA concentration in urine [3, 10]: 39 ng/mL | BocMA absolute amount in urine [3, 11]: 44 ng | BocMA concentration in urine [3, 11]: 2.9 ng/mL | BocMA absolute amount in urine [3, 12]: 2700 ng | BocMA concentration in urine [3, 12]: 5400 ng/mL | BocMA absolute amount in urine ([3]; rat no. 3, urine 0–72 h total, BocMA 20 mg/kg i.p.): 15000 ng | BocMA absolute amount in urine [3, 13]: 4400 ng | BocMA concentration in urine [3, 13]: 2200 ng/mL | BocMA absolute amount in urine [3, 14]: 6800 ng | BocMA concentration in urine [3, 14]: 680 ng/mL | BocMA absolute amount in urine [3, 15]: 660 ng | BocMA concentration in urine [3, 15]: 83 ng/mL | BocMA absolute amount in urine [3, 16]: 810 ng | BocMA concentration in urine [3, 16]: 90 ng/mL | Excreted BocMA as the unchanged form, share of the administered quantity ([3]; rat urine over 72 h, average, n = 3): 0.13% | Detection in rat urine (LC–QToF–MS) ([3]; urine 0–72 h, BocMA 20 mg/kg i.p., n = 3): detected in urine from all rats | Incubation time at which peak intensity was highest ([4]; RLM test): 0 min | BocMA degraded ([4]; RLM, first 3 min): 83% | ER (extraction ratio) ([4]; RLM, mean ± SD, n = 3): 0.92 and 0.92 ± 0.01 | CLint (estimated intrinsic clearance) ([4]; RLM, scaled to whole liver, mean ± SD, n = 3): 640 ± 70 mL/min/kg body wt. | CLH (estimated hepatic clearance) ([4]; RLM, well-stirred model without protein binding, mean ± SD, n = 3): 51 ± 1 mL/min/kg body wt. | half-life at 1 μg/mL ([4]; rat, microsomes, pH 7.4): 2 ± 0.2 min | microsomal CLint at 1 μg/mL ([4]; rat, microsomes, pH 7.4): 360 ± 40 µL/min/mg
